This test deals with T1, RACK1 (Homo sapiens, UniProt P63244).
T1 construct: endogenous in cells; host or cells: HEp-2 cells (human laryngeal carcinoma line), virus-infected
The experiment in a line: RACK1 protein western in EV-D68 infected HEp-2 cells. The class given is cell-based. The note with it: 48 h. How it is done: HEp-2 cells were grown to 80-90% confluency in Dulbecco's Modified Eagle's medium (DMEM) supplemented with 10% fetal calf serum (FCS) and 1% penicillin-streptomycin (PS) and fungicide. The virus and the indicated concentration of compounds were added and incubated for 48 h. After washing with PBS, the cell lysates were collected and were run in a Biorad XT-Criterion gel and transferred to a PVDF membrane. The membrane was blotted with an antibody directed against the EVD68 major structural protein VP1 purchased from Genetex (Irvine, Calif.). An anti-mouse IgG-HRP secondary antibody and Biorad's Western ECL substrate-Clarity was used to label the bands and the image was obtained in a Biorad Gel doc system. […] The tubulin antibody was used as the loading control.
HEp-2 cells were grown to 80-90% confluency in Dulbecco's Modified Eagle's medium (DMEM) supplemented with 10% fetal calf serum FCS and 1% penicillin-streptomycin (PS) and fungicide. The representative virus (EV-D68) and the indicated concentration of compounds were added and incubated for 48 h. After washing with PBS, the cell lysates were collected and were run in a Biorad XT-Criterion gel and transferred to a PVDF membrane. The membrane was blotted with an antibody directed against the EV-D68 major structural protein VP1 purchased from Genetex (Irvine, Calif.). […]

Drawing on patent US11596623B2, “Methods for treating virus infection or proliferation” (HOWARD UNIVERSITY, priority 2018, dated 2023), this text covers RACK1 protein level for one molecule.

For the molecule `Nn1c(S)nnc1-c1cc(Cl)cc(Cl)c1` [SD29-14], the RACK1 protein level result is on record as “loss of RACK1 protein”.
